Results published in PubChem BioAssay AID1963839 (Molecular Pharmacology Branch, DTP, NCI, 2024).

Test system: 817829-284-R-J1-PDC complex spheroid viability
Assay: Anticancer human tumor 817829-284-R-J1-PDC patient-derived colon adenocarcinoma cell line growth inhibition [POLQ]
Conditions: for IC50: curve of first compound; for viability, T/C: stronger effect = lower value
Procedure: Multicellular complex tumor spheroid response to Polymerase (POL) inhibitors (novobiocin, ART-558, RP6685) in combination with a variety of drugs and investigational agents in selected tumor cell lines
The POL inhibitors (novobiocin, ART-558, and RP6685) were evaluated both individually and in combination with standard of care and investigational anticancer small molecules within a complex spheroid model of solid tumors. . Complex spheroids include a stromal component modeled by human endothelial cells (HUVEC) and fibroblasts modeled by human mesenchymal stem cells (MSCs). The concentration ranges selected for each drug and investigational agent were based upon clinically achievable concentrations if the clinical Cmax of the agent was known.
Compounds. The drugs and investigational agents: novobiocin (NSC847541), ART-558 (NSC835418), RP-6685 (NSC848927), peposertib (NSC802822), ceralasertib (NSC780249), elimusertib (NSC800525), camonsertib (NSC841442), AZD-1390 (NSC803789), olaparib (NSC753686), talazoparib (NSC767125), rucaparib (NSC756644), sotorasib (NSC818433), MRTX-1133 (NSC836407), SN-38 (NSC673596), topotecan (NSC609699), epotoside (NSC141540), doxorubicin (NSC123127), gemcitabine (NSC613327), 5-fluorouracil (NSC19893), paclitaxel (NSC125973), vemurafenib (NSC761431), MSA-2 (NSC828583), SN-011 (NSC837082), adavosertib (NSC754352), prexasertib (NSC758257), carboplatin (NSC241240) and oxaliplatin (NSC266046), were obtained from the National Cancer Institute (NCI) Developmental Therapeutics Program Chemical Repository (21). The FDA-approved anticancer drug set is available from the Developmental Therapeutics Program at https://dtp.cancer.gov/organization/dscb/obtaining/. […] The stock solutions were prepared in dimethyl sulfoxide (DMSO, Sigma-Aldrich, St. Louis, MO, cat. D2650), except for the platinum compounds which were prepared in saline (Quality Biological, Gaithersburg, MD, cat. 114-055-101), at 800-fold the tested concentration and stored at -70 degrees C prior to their use. All drugs and investigational agents were tested over a range starting from a high concentration at or near the clinical Cmax and decreasing in half-log increments. If the clinical Cmax for an agent had not been determined, the highest concentration tested was 10 microM, except for SN-38, which was tested at a high concentration of 1 microM.
Cell Culture. All cells were maintained in an incubator at 37 degrees C and 5% CO2 with 95% humidity. The PDC lines were cultured according to standard operating procedures established by the NCI PDMR (https://pdmr.cancer.gov). Table 3 of the manuscript, lists the cell lines along with the number of the three cell types plated to form the mct-spheroids and media for tumor cell growth. After thawing, all PDC lines, except 997537-175-T-J1-PDC and 415267-285-R-J2-PDC, were cultured in Matrigel-coated flasks prepared with a working solution of 1X Ham's F-12 nutrient mix, without supplementation (Thermo Fisher Scientific, cat. 11765054), 100 U/mL penicillin-streptomycin (Thermo Fisher Scientific, cat. 15140122), and 2.5% Matrigel (Corning Inc., Corning, NY, cat. 354248) for the first three passages. The two PDC lines 997537-175-T-J1-PDC and 415267-285-R-J2-PDC were cultured on uncoated flasks. The 857933-349-R-J2-PDC line was cultured in 6C/Colon 1B media containing advanced DMEM/F-12 (Thermo Fisher Scientific, cat. 12634028), 10 mM HEPES (Thermo Fisher Scientific, cat. 15630080), 1X GlutaMAX supplement (Thermo Fisher Scientific, cat. 35050061), 0.1 mg/mL primocin (InvivoGen, San Diego, CA, cat. ant-pm-2), 10% defined fetal bovine serum, heat inactivated (HyClone Laboratories Inc., Logan, UT, cat. SH30070.03HI), 50% L-WRN conditioned media (ATCC, cat. CRL-3276), 1.25 mM N-Acetyl-L-cysteine (Sigma-Aldrich, cat. A9165), 10 mM nicotinamide (Sigma-Aldrich, cat. N0636), 1X B-27 supplement (Thermo Fisher Scientific, cat. 17504044), 1X N-2 supplement (Thermo Fisher Scientific, cat. […]

[1] = second compound 0.0316 µM, first compound 0.0316 µM
[2] = second compound 0.0316 µM, first compound 0.1 µM
[3] = second compound 0.0316 µM, first compound 0.316 µM
[4] = second compound 0.0316 µM, first compound 1 µM
[5] = second compound 0.0316 µM, first compound 3.16 µM
[6] = second compound 0.0316 µM, first compound 10 µM
[7] = second compound 0.1 µM, first compound 0.0316 µM
[8] = second compound 0.1 µM, first compound 0.1 µM
[9] = second compound 0.1 µM, first compound 0.316 µM
[10] = second compound 0.1 µM, first compound 1 µM
[11] = second compound 0.1 µM, first compound 3.16 µM
[12] = second compound 0.1 µM, first compound 10 µM
[13] = second compound 0.316 µM, first compound 0.0316 µM
[14] = second compound 0.316 µM, first compound 0.1 µM
[15] = second compound 0.316 µM, first compound 0.316 µM
[16] = second compound 0.316 µM, first compound 1 µM
[17] = second compound 0.316 µM, first compound 3.16 µM
[18] = second compound 0.316 µM, first compound 10 µM
[19] = second compound 1 µM, first compound 0.0316 µM
[20] = second compound 1 µM, first compound 0.1 µM
[21] = second compound 1 µM, first compound 0.316 µM
[22] = second compound 1 µM, first compound 1 µM
[23] = second compound 1 µM, first compound 3.16 µM
[24] = second compound 1 µM, first compound 10 µM
[25] = second compound 3.16 µM, first compound 0.0316 µM
[26] = second compound 3.16 µM, first compound 0.1 µM
[27] = second compound 3.16 µM, first compound 0.316 µM
[28] = second compound 3.16 µM, first compound 1 µM
[29] = second compound 3.16 µM, first compound 3.16 µM
[30] = second compound 3.16 µM, first compound 10 µM
[31] = second compound 10 µM, first compound 0.0316 µM
[32] = second compound 10 µM, first compound 0.1 µM
[33] = second compound 10 µM, first compound 0.316 µM
[34] = second compound 10 µM, first compound 1 µM
[35] = second compound 10 µM, first compound 3.16 µM
[36] = second compound 10 µM, first compound 10 µM
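Also: spheroids exposed to compounds for 7 days.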
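For viability, T/C in this document: 100% = DMSO vehicle-treated spheroids.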

Nc1ccn(C2OC(CO)C(O)C2(F)F)c(=O)n1 (centres undefined) + Nc1ccc(C#CCN(C(=O)Cc2ncc(C(F)(F)F)cc2C(F)(F)F)c2ccc(F)cc2)nn1
IC50 (second compound 0.0316 µM): < 0.0316 µM | IC50 (second compound 0.1 µM): < 0.0316 µM | IC50 (second compound 0.316 µM): < 0.0316 µM | IC50 (second compound 1 µM): < 0.0316 µM | IC50 (second compound 3.16 µM): < 0.0316 µM | IC50 (second compound 10 µM): < 0.0316 µM | viability, T/C [1]: 3.03% | viability, T/C [2]: 4.05% | viability, T/C [3]: 4.41% | viability, T/C [4]: 4.06% | viability, T/C [5]: 2.78% | viability, T/C [6]: 2.3% | viability, T/C [7]: 3.67% | viability, T/C [8]: 4.46% | viability, T/C [9]: 3.95% | viability, T/C [10]: 3.72% | viability, T/C [11]: 3.07% | viability, T/C [12]: 1.99% | viability, T/C [13]: 3.79% | viability, T/C [14]: 3.81% | viability, T/C [15]: 4.1% | viability, T/C [16]: 4.23% | viability, T/C [17]: 2.51% | viability, T/C [18]: 2.13% | viability, T/C [19]: 3.62% | viability, T/C [20]: 4.03% | viability, T/C [21]: 4.21% | viability, T/C [22]: 3.9% | viability, T/C [23]: 2.69% | viability, T/C [24]: 1.87% | viability, T/C [25]: 4.08% | viability, T/C [26]: 3.7% | viability, T/C [27]: 3.44% | viability, T/C [28]: 3.79% | viability, T/C [29]: 2.78% | viability, T/C [30]: 1.9% | viability, T/C [31]: 5.53% | viability, T/C [32]: 3.31% | viability, T/C [33]: 3.9% | viability, T/C [34]: 3.4% | viability, T/C [35]: 3.17% | viability, T/C [36]: 2.42%

O=C(c1cc(Cc2n[nH]c(=O)c3ccccc23)ccc1F)N1CCN(C(=O)C2CC2)CC1 + Nc1ccc(C#CCN(C(=O)Cc2ncc(C(F)(F)F)cc2C(F)(F)F)c2ccc(F)cc2)nn1
IC50 (second compound 0.0316 µM): 5.08 µM | IC50 (second compound 0.1 µM): 2.54 µM | IC50 (second compound 0.316 µM): 4.01 µM | IC50 (second compound 1 µM): 4.53 µM | IC50 (second compound 3.16 µM): 4.24 µM | IC50 (second compound 10 µM): 4.74 µM | viability, T/C [1]: 118% | viability, T/C [2]: 96% | viability, T/C [3]: 93.7% | viability, T/C [4]: 91.6% | viability, T/C [5]: 58.1% | viability, T/C [6]: 32.9% | viability, T/C [7]: 108% | viability, T/C [8]: 103% | viability, T/C [9]: 83.2% | viability, T/C [10]: 66.8% | viability, T/C [11]: 47% | viability, T/C [12]: 27.4% | viability, T/C [13]: 90.3% | viability, T/C [14]: 94% | viability, T/C [15]: 98.1% | viability, T/C [16]: 93.5% | viability, T/C [17]: 55% | viability, T/C [18]: 30.9% | viability, T/C [19]: 106% | viability, T/C [20]: 94.5% | viability, T/C [21]: 89.6% | viability, T/C [22]: 85.2% | viability, T/C [23]: 58.2% | viability, T/C [24]: 27.8% | viability, T/C [25]: 113% | viability, T/C [26]: 104% | viability, T/C [27]: 112% | viability, T/C [28]: 92.5% | viability, T/C [29]: 58.6% | viability, T/C [30]: 26% | viability, T/C [31]: 104% | viability, T/C [32]: 94.8% | viability, T/C [33]: 86.7% | viability, T/C [34]: 94.8% | viability, T/C [35]: 63.5% | viability, T/C [36]: 25.1%
